Results from the CheMixHub viscosity set.

Assay: xn = mol fraction of the nth substance listed

CCNCC + CCCCCCCO
viscosity [mPa·s], 100 kPa
Conditions	x1 = 0.0806	x1 = 0.1606	x1 = 0.2415	x1 = 0.3492	x1 = 0.4394	x1 = 0.5613	x1 = 0.6506	x1 = 0.7401	x1 = 0.8503	x1 = 0.9414
293.15 K	6.26	5.55	4.87	4.03	3.37	2.55	2.02	1.52	0.947	0.532
303.15 K	4.47	3.94	3.45	2.83	2.36	1.78	1.4	1.07	0.7	0.43
313.15 K	3.3	2.91	2.53	2.07	1.72	1.3	1.03	0.79	0.52	0.35
323.15 K	2.47	2.17	1.89	1.54	1.28	0.97	0.78	0.6	0.42	0.3

COCCOCCOCCOC + CCCCCCCO
101 kPa
Conditions	viscosity [mPa·s]
293.15 K, x1 = 0.05281	5.682
293.15 K, x1 = 0.09018	5.069
293.15 K, x1 = 0.2084	3.662
293.15 K, x1 = 0.2924	3.185
293.15 K, x1 = 0.4036	2.821
293.15 K, x1 = 0.5165	2.541
293.15 K, x1 = 0.5861	2.393
293.15 K, x1 = 0.6984	2.25
293.15 K, x1 = 0.8022	2.21
293.15 K, x1 = 0.8977	2.195
293.15 K, x1 = 0.9591	2.185
303.15 K, x1 = 0.05495	4.164
303.15 K, x1 = 0.08973	3.734
303.15 K, x1 = 0.2069	2.83
303.15 K, x1 = 0.2951	2.469
303.15 K, x1 = 0.403	2.197
303.15 K, x1 = 0.504	2.013
303.15 K, x1 = 0.5851	1.916
303.15 K, x1 = 0.705	1.813
303.15 K, x1 = 0.7893	1.785
303.15 K, x1 = 0.9012	1.776
303.15 K, x1 = 0.9516	1.777
313.15 K, x1 = 0.0542	3.158
313.15 K, x1 = 0.09194	2.876
313.15 K, x1 = 0.2077	2.266
313.15 K, x1 = 0.2951	2
313.15 K, x1 = 0.4053	1.782
313.15 K, x1 = 0.5078	1.654
313.15 K, x1 = 0.59	1.579
313.15 K, x1 = 0.7035	1.515
313.15 K, x1 = 0.795	1.483
313.15 K, x1 = 0.9054	1.474
313.15 K, x1 = 0.9487	1.471

Nc1ccccc1 + CCCCCCCO
viscosity [mPa·s], 100 kPa
Conditions	x1 = 0.0821	x1 = 0.1633	x1 = 0.2429	x1 = 0.3578	x1 = 0.4421	x1 = 0.5517	x1 = 0.6514	x1 = 0.7434	x1 = 0.8522	x1 = 0.9421
293.15 K	6.21	5.64	5.21	4.74	4.45	4.11	3.94	3.86	3.86	4.1
303.15 K	4.48	4.11	3.82	3.46	3.23	2.99	2.86	2.79	2.82	2.97
313.15 K	3.31	3.05	2.85	2.61	2.46	2.3	2.22	2.19	2.22	2.34
323.15 K	2.51	2.36	2.2	2.01	1.91	1.8	1.75	1.73	1.75	1.84

CCNCC + CCCCCCO
viscosity [mPa·s], 100 kPa
Conditions	x1 = 0.0806	x1 = 0.1594	x1 = 0.2398	x1 = 0.3506	x1 = 0.4394	x1 = 0.559	x1 = 0.6502	x1 = 0.7392	x1 = 0.8506	x1 = 0.9401
293.15 K	4.73	4.11	3.54	2.83	2.32	1.71	1.32	0.98	0.65	0.43
303.15 K	3.45	3.02	2.59	2.08	1.7	1.27	1	0.75	0.52	0.37
313.15 K	2.58	2.24	1.92	1.53	1.25	0.93	0.73	0.55	0.398	0.31
323.15 K	1.97	1.71	1.46	1.16	0.95	0.71	0.56	0.44	0.33	0.27

COCCOCCOCCOC + CCCCCCO
101 kPa
Conditions	viscosity [mPa·s]
293.15 K, x1 = 0.04492	4.503
293.15 K, x1 = 0.09537	3.827
293.15 K, x1 = 0.1973	3.104
293.15 K, x1 = 0.2976	2.686
293.15 K, x1 = 0.4067	2.427
293.15 K, x1 = 0.5095	2.269
293.15 K, x1 = 0.6012	2.199
293.15 K, x1 = 0.6895	2.144
293.15 K, x1 = 0.7928	2.134
293.15 K, x1 = 0.8972	2.135
293.15 K, x1 = 0.9607	2.158
303.15 K, x1 = 0.04662	3.285
303.15 K, x1 = 0.09419	2.854
303.15 K, x1 = 0.2001	2.327
303.15 K, x1 = 0.2995	2.056
303.15 K, x1 = 0.4075	1.869
303.15 K, x1 = 0.5134	1.747
303.15 K, x1 = 0.5831	1.711
303.15 K, x1 = 0.6929	1.697
303.15 K, x1 = 0.7889	1.712
303.15 K, x1 = 0.9161	1.735
303.15 K, x1 = 0.9401	1.753
313.15 K, x1 = 0.04436	2.565
313.15 K, x1 = 0.09283	2.292
313.15 K, x1 = 0.2014	1.894
313.15 K, x1 = 0.2982	1.701
313.15 K, x1 = 0.41	1.56
313.15 K, x1 = 0.5102	1.491
313.15 K, x1 = 0.601	1.454
313.15 K, x1 = 0.6974	1.435
313.15 K, x1 = 0.8008	1.435
313.15 K, x1 = 0.8996	1.453
313.15 K, x1 = 0.9626	1.462

Nc1ccccc1 + CCCCCCO
viscosity [mPa·s], 100 kPa
Conditions	293.15 K	303.15 K	313.15 K	323.15 K
x1 = 0.0816	4.79	3.54	2.65	2.05
x1 = 0.1448	–	3.327	2.396	–
x1 = 0.1533	4.4	3.29	2.48	1.92
x1 = 0.2422	4.1	3.09	2.33	1.82
x1 = 0.2758	–	2.857	1.969	–
x1 = 0.3514	3.81	2.87	2.21	1.73
x1 = 0.4176	–	2.453	1.627	–
x1 = 0.4449	3.64	2.74	2.12	1.66
x1 = 0.5246	–	2.213	1.457	–
x1 = 0.5571	3.55	2.61	2.04	1.61
x1 = 0.6037	–	2.119	1.397	–
x1 = 0.6483	3.52	2.59	2.03	1.61
x1 = 0.7131	–	2.101	1.432	–
x1 = 0.7361	3.55	2.61	2.05	1.63
x1 = 0.8283	–	2.283	1.639	–
x1 = 0.8542	3.73	2.72	2.16	1.71
x1 = 0.932	–	2.648	1.979	–
x1 = 0.9356	4.03	2.93	2.32	1.84

CCNCC + CCCCCO
viscosity [mPa·s], 100 kPa
Conditions	x1 = 0.0806	x1 = 0.1601	x1 = 0.236	x1 = 0.3486	x1 = 0.4399	x1 = 0.5596	x1 = 0.6501	x1 = 0.7397	x1 = 0.8494	x1 = 0.9401
293.15 K	3.45	2.94	2.51	1.92	1.52	1.09	0.833	0.645	0.476	0.373
303.15 K	2.61	2.22	1.87	1.43	1.12	0.79	0.618	0.496	0.386	0.323
313.15 K	2	1.7	1.43	1.09	0.847	0.594	0.47	0.38	0.317	0.28
323.15 K	1.54	1.31	1.09	0.83	0.64	0.45	0.357	0.3	0.261	0.245

Nc1ccccc1 + CCCCCO
viscosity [mPa·s]
Conditions	293.15 K	303.15 K	313.15 K	323.15 K
100 kPa, x1 = 0.0802	3.66	2.77	2.11	1.66
100 kPa, x1 = 0.1304	–	2.664	2.018	–
100 kPa, x1 = 0.1536	3.42	2.6	2.01	1.57
100 kPa, x1 = 0.2363	3.26	2.48	1.93	1.52
100 kPa, x1 = 0.2524	–	2.309	1.697	–
100 kPa, x1 = 0.3418	3.15	2.4	1.86	1.48
100 kPa, x1 = 0.3885	–	1.947	1.361	–
100 kPa, x1 = 0.4371	3.11	2.34	1.84	1.47
100 kPa, x1 = 0.4944	–	1.724	1.147	–
100 kPa, x1 = 0.5521	3.12	2.32	1.84	1.47
100 kPa, x1 = 0.5745	–	1.627	1.051	–
100 kPa, x1 = 0.6518	3.21	2.37	1.88	1.5
100 kPa, x1 = 0.6878	–	1.619	1.031	–
100 kPa, x1 = 0.7411	3.35	2.47	1.96	1.56
100 kPa, x1 = 0.8105	–	1.865	1.245	–
100 kPa, x1 = 0.8487	3.63	2.66	2.12	1.67
100 kPa, x1 = 0.924	–	2.42	1.75	–
100 kPa, x1 = 0.9425	4.04	2.95	2.32	1.83
101.33 kPa, x2 = 0.1207	3.714	–	–	–
101.33 kPa, x2 = 0.2883	3.273	–	–	–
101.33 kPa, x2 = 0.3221	3.227	–	–	–
101.33 kPa, x2 = 0.3789	3.161	–	–	–
101.33 kPa, x2 = 0.4074	3.138	–	–	–
101.33 kPa, x2 = 0.5661	3.087	–	–	–
101.33 kPa, x2 = 0.7695	3.258	–	–	–
101.33 kPa, x2 = 0.8055	3.326	–	–	–
101.33 kPa, x2 = 0.8557	3.444	–	–	–
101.33 kPa, x2 = 0.9099	3.605	–	–	–
101.33 kPa, x2 = 0.9484	3.756	–	–	–
101.33 kPa, x2 = 0.9525	3.775	–	–	–

Oc1ccc2ccccc2c1 + CCCCCOC(C)=O
Conditions	viscosity [mPa·s]
298.15 K, 101 kPa, x2 = 0.5	1.598
